Legend:
rat [1] = conditions: Salvemini et al. 2001; cited from earlier work
adult mice = conditions: lethal total body irradiation, Thompson et al. 2010; cited from earlier work
hamster = hamster oral mucositis, Murphy et al. 2008; cited from earlier work
[2] = test system: rats subjected to an experimental model of colitis; conditions: rat colitis model, Cuzzocrea et al. 2001; cited from earlier work
rat [3] = conditions: Salvemini et al. 1999; cited from earlier work
H1299 (wild type) cells [4] = test: Mitochondrial superoxide, MitoSOX probe, flow cytometer, H1299; assay type: cell-based, human
[5] = test system: PARP (poly (ADP ribosyl) polymerase); test: PARP activation in H1299CAT cells with doxycycline induction of CAT overexpression; assay type: cell-based, human; conditions: CAT induced with doxycycline
Excerpt: When treated with doxcycline, H1299CAT cells express greater levels of human catalase (CAT) than the “parent” cells, H1299 (wild type), eliminating all or part of the H2O2 generated from superoxide by GC4419 or other Mn pentaaza macrocyclic dismutase mimetics.

H460 cells [6] = test: Mitochondrial superoxide, MitoSOX probe, flow cytometer, H460; assay type: cell-based, human
head and neck patients = conditions: concurrent chemoradiotherapy; cited from earlier work
H460 cells [7] = test: Hydrogen peroxide, PO-1 probe, H460; assay type: cell-based, human
[8] = test system: H1299 human NSCLC cells, modified to inducibly overexpress catalase (H1299CAT); test: Survival of H1299CAT cells with GC4419, cisplatin and catalase overexpression; assay type: cell-based; set-up: dose or concentration left out as unconfirmed; conditions: GC4419 added to cisplatin, 120 hours
Excerpt: CAT overexpression in this line (H1299CAT) was induced by administration of doxycycline, which turned on transcription of the inserted catalase genes.

[9] = test system: hair cells in mouse cochlea cultures; test: Cochlear organotypic cultures with cisplatin, hair cell number; assay type: cell-based
Description: Cochlear organotypic cultures. C57BL/10J mice were decapitated on postnatal day 2 or 3. The stria vascularis and spiral ligament was removed and the organ of Corti and spiral ganglion neurons from the middle turn of the cochlea dissected out. The middle turn of the cochlea was placed in a collagen matrix and 1 ml of serum-free BME plus serum free supplement, 1% bovine serum albumin, 2 mM glutamine, 5 mg/ml glucose, and 10 U/ml penicillin on a collagen pre-prepared culture dish. The cochlear explants were incubated at 4% O2, 37° C. in 5% CO2 for 2 h. […] After 24 hours the cultures were fixed for 4 h in 4% paraformaldehyde as previously described (see, e.g., McFadden et al., Toxicol Appl Pharmacol. 2003; 186(1):46-54) and immersed in rhodamine-labeled phalloidin in PBS for 30 min. […] Tissues were examined histologically for inner and outer hair cell organization and number as previously described. Dihydroethidium (DHE) was used to measure oxidative stress. […] The cochlear specimens were incubated with 1 μm DHE for 30 min at 37° C. and then fluorescent images obtained with a confocal laser microscope as previously described (see, e.g., Fetoni et al., The Journal of neuroscience: the official journal of the Society for Neuroscience. 2013; 33(9):4011-23).

CBA/CaJ mice = test: In vivo multicycle mouse model of cisplatin toxicity; conditions: 10 mg/kg GC4419 1 hour prior to 3.0 mg/kg cisplatin IP
[10] = test system: H460 human non-small cell lung carcinoma (NSCLC) cells; test: Survival of H460 cells in culture with GC4419 and cisplatin; assay type: cell-based; set-up: dose or concentration left out as unconfirmed; conditions: GC4419 added to indicated concentrations of cisplatin, 120 hrs, vs cisplatin alone
Description: After 120 hrs the surviving fraction of cells was determined.

Male C57BL/6J mice = test: Cisplatin-induced acute kidney injury (AKI) model in mice; assay type: in vivo, mouse
Excerpt: 4 month old male C57BL/6J mice (young) were purchased from Jackson Laboratories and 18 month old mice (old) were obtained as collaboration with Dr. Amy Sindler (University of Iowa) from the National institute of Aging. All mice were maintained in accordance with ACURF approval #4121235 at the University of Iowa Animal Care facility. Mice were maintained on normal diets and water ad libitum through the course of the experiment.
Animals were weighed every other day following the start of treatment with GC4419.

H1299 (wild type) cells [11] = test: Total reactive oxygen species, CellROX probe, flow cytometer, H1299; assay type: cell-based, human
Description: (§1) After the treatments and incubations CellROX fluorogenic probes for total ROS were added for 30 minutes continued incubation and the CellROX signal was measured using a flow cytometer.

[12] = test system: PARP (poly (ADP ribosyl) polymerase); test: PARP activation in H1299 (wild type) cells (Western blot); assay type: cell-based, human
H460 cells [13] = test: Total reactive oxygen species, CellROX probe, flow cytometer, H460; assay type: cell-based, human
Description: as §1

[14] = test system: hair cells in mouse cochlea cultures; test: Mouse cochlea cultures with paclitaxel, hair cell number; assay type: cell-based; conditions: 2 μM GC4419 for 48 or 72 hours (24 hour pre-treatment) with paclitaxel 0.1 μM and 1 μM
Description: Pups from C57BL/B16 pregnant female mice were decapitated on postnatal day 3. The stria vascularis and spiral ligament were removed, and the cochlea dissected out. The cochlea was placed in 400 ul of DMEM 5% FBS on a collagen pre-prepared culture dish and incubated at 4% O2, 37° C. in 5% CO2 for 24 hours. The medium was then exchanged with new medium that contained paclitaxel 0, 100 nM, and 1 μM, with and without 2 μM GC4419 for 48 hours, or pretreated for 24 hours with 2 μM GC4419 followed by paclitaxel treatment. The explants were then fixed for 1 hour in 4% paraformaldehyde. Specimens were stained with anti-myosin-VIIa antibody. Specimens were mounted and examined under a fluorescence microscope and hair cells counted using the image analysis software Imaris.

[15] = test system: head-and-neck cancer patients; conditions: patients undergoing chemoradiation therapy, Anderson 2015; cited from earlier work
[16] = test system: athymic female Nu/Nu (nude) mice; test: Cisplatin-induced hematotoxicity in SQ20B tumor-bearing nude mice; assay type: in vivo, mouse
Description: 7 week old athymic female Nu/Nu (nude) mice were implanted in a hind leg with SQ20B human head and neck squamous cell carcinoma cells. […] Mice were assessed for blood counts by tail vein blood collection either 2 days or 2 weeks after the treatment period.

rat [17] = conditions: rat model, Tuder et al. 2003; cited from earlier work
[18] = test system: PARP (poly (ADP ribosyl) polymerase); test: PARP activation in H460 cells (Western blot, 89 kd active/116 kd inactive form); assay type: cell-based, human
Excerpt: PARP is a nuclear enzyme involved in DNA repair of single strand breaks and is activated following cell stress including chemotherapy and irradiation.

H1299 (wild type) cells [19] = test: Hydrogen peroxide, PO-1 probe, H1299; assay type: cell-based, human
[20] = test system: hair cells of the cochlea; conditions: cited from earlier work
patients = conditions: human, in vivo; cited from earlier work
[21] = H1299, GC4419 added to cisplatin or cisplatin plus IR
[22] = H460, GC4419 added to cisplatin or cisplatin plus IR
[23] = 10 mg/kg GC4419 daily + cisplatin
[24] = 10 mg/kg GC4419 daily from 4 days prior to 10 mg/kg cisplatin until euthanasia
[25] = 10 mg/kg GC4419 + cisplatin + IR
[26] = 10 mg/kg GC4419 + cisplatin + IR, 2 days and 2 weeks after end of treatment
[27] = H1299, cisplatin or cisplatin plus IR
[28] = H460, cisplatin or cisplatin plus IR

SMILES: [Cl-].[Cl-].[Mn+2].c1cc2nc(c1)CN[C@@H]1CCCC[C@H]1NCCN[C@@H]1CCCC[C@H]1NC2 [GC4403]
- joint disease (rat [1]): prevent joint disease
- radiation damage (adult mice): attenuate the radiation damage
- radiation damage (hamster): attenuate the radiation damage
- injury to the colon [2]: very significantly reduce the injury to the colon
- inflammation (rat [3]): inhibit inflammation

SMILES: [Cl][Mn][Cl].c1cc2nc(c1)CN[C@H]1CCCC[C@@H]1NCCN[C@H]1CCCC[C@@H]1NC2 [GC4419]
- mitochondrial superoxide (MitoSOX signal) (H1299 (wild type) cells [4]; [21]): significantly reduced the increase in mitochondrial superoxide
- basal levels of mitochondrial superoxide (MitoSOX signal) (H1299 (wild type) cells [4]; H1299, GC4419 alone): significantly reduced the basal levels of mitochondrial superoxide
- PARP activation response to cisplatin ([5]; 24 M GC4419 + 1 M cisplatin, 24 hours (p<0.01, FIG. 6B)): significantly (p<0.05) reduced the PARP activation response
- PARP activation response to IR+cisplatin ([5]; 24 M GC4419 + 6 Gy IR + 1 M cisplatin, 24 hours (p<0.001, FIG. 6C)): significantly (p<0.05) reduced the PARP activation response
- PARP activation response to IR ([5]; 24 M GC4419 + 6 Gy IR, 24 hours (p<0.05, FIG. 6C)): significantly (p<0.05) reduced the PARP activation response
- mitochondrial superoxide (MitoSOX signal) (H460 cells [6]; [22]): significantly reduced the increase in mitochondrial superoxide
- basal levels of mitochondrial superoxide (MitoSOX signal) (H460 cells [6]; H460, GC4419 alone): significantly reduced the basal levels of mitochondrial superoxide
- incidence of chronic kidney disease (head and neck patients): significantly decrease the incidence of chronic kidney disease
- H2O2 (PO-1 probe) (H460 cells [7]; [22]): significantly further increases the increase in H2O2
- basal levels of H2O2 (PO-1 probe) (H460 cells [7]; H460, GC4419 alone): significantly increases both the basal levels of H2O2
- surviving fraction of cells ([8]; with CAT overexpression (doxycycline)): abrogated the GC4419 contribution to cisplatin response
- surviving fraction of cells ([8]; without CAT overexpression (wt), vs cisplatin alone): decreased the surviving fraction
- number of hair cells (FIG. 12A) ([9]; GC4419 0.5, 2 or 4 μM with cisplatin, 24 h): dose-dependent protection against hair cell damage
- hair cell damage, microscopy images (FIG. 12B) ([9]; GC4419 with cisplatin): reduced damage to the hair cells caused by cisplatin and preserved the number of hair cells
- weight loss (FIG. 14) (CBA/CaJ mice): reduced the amount of weight loss caused by cisplatin
- surviving fraction of cells [10]: decreased the surviving fraction
- kidney injury molecule 1 (KIM1) biomarker (Male C57BL/6J mice; [23]): prevented that injury
- neutrophil gelatinase-associated lipocalin (NGAL) biomarker (Male C57BL/6J mice; [23]): prevented that injury
- survival (Male C57BL/6J mice; 10 mg/kg GC4419 daily + cisplatin, old mice): prevented cisplatin mortality
- weight loss (Male C57BL/6J mice; 10 mg/kg GC4419 daily + cisplatin, young and old mice): reduced the amount of weight loss
- creatinine level (Male C57BL/6J mice; [24]): completely prevented these increases in BUN and creatinine
- whole blood urea nitrogen (BUN) level (Male C57BL/6J mice; [24]): completely prevented these increases in BUN and creatinine
- total ROS (CellROX signal) (H1299 (wild type) cells [11]; H1299, 24 M GC4419 used alone): little effect on total ROS
- total ROS (CellROX signal) (H1299 (wild type) cells [11]; H1299, GC4419 added to cisplatin therapy): synergistic effect on total ROS
- PARP activity (ratio 89 kd active to 116 kd inactive form) ([12]; 24 μM GC4419 added to 10 μM cisplatin, 24 hr, vs cisplatin): further and significantly p<0.01) increased PARP activity
- PARP activity (ratio 89 kd active to 116 kd inactive form) ([12]; 24 M GC4419 added to 6 Gy IR + 1 M cisplatin, 24 hours): significantly increased (p<0.0.05)
- PARP activity (ratio 89 kd active to 116 kd inactive form) ([12]; 24 M GC4419 added to 6 Gy IR, 24 hours, vs radiation alone): significantly increased PARP activity
- total ROS (CellROX signal) (H460 cells [13]; H460, 24 M GC4419 used alone): little effect on total ROS
- total ROS (CellROX signal) (H460 cells [13]; H460, GC4419 added to cisplatin therapy): synergistic effect on total ROS
- number of hair cells (FIG. 15) [14]: protective effect of GC4419 on the hair cells
- oral mucositis [15]: reduce oral mucositis
- eosinophil percentage [16, 25]: maintained eosinophil percentage at apparently normal levels
- neutrophil percentage [16, 25]: maintained neutrophil percentage at apparently normal levels
- leukocyte (WBC) count [16, 26]: stimulated leukocyte (WBC)
- lymphocyte subset [16, 26]: proportionally lymphocyte subset production
- platelets ([16]; 10 mg/kg GC4419 every day + cisplatin + IR, two days after end of treatments): significantly restored platelet levels
- VEGFr inhibitor-induced pulmonary disease (rat [17]): attenuate VEGFr inhibitor-induced pulmonary disease
- PARP activity (ratio 89 kd active to 116 kd inactive form) ([18]; 24 μM GC4419 added to 6 Gy IR + 1 μM cisplatin, 24 hr): significantly increased (p<0.01)
- PARP activity (ratio 89 kd active to 116 kd inactive form) ([18]; 24 μM GC4419 added to 6 Gy IR, 24 hr, vs radiation alone): significantly increased PARP activity
- PARP activity (ratio 89 kd active to 116 kd inactive form) ([18]; 24 M GC4419 added to 1 M cisplatin, 24 hours, vs cisplatin): further and significantly (p<0.01) increased PARP activity
- H2O2 (PO-1 probe) (H1299 (wild type) cells [19]; [21]): significantly further increases the increase in H2O2
- basal levels of H2O2 (PO-1 probe) (H1299 (wild type) cells [19]; H1299, GC4419 alone): significantly increases both the basal levels of H2O2

SMILES: N.N.[Cl][Pt][Cl] [cisplatin, reference compound]
- mitochondrial superoxide (MitoSOX signal) (H1299 (wild type) cells [4]; [27]): increase in mitochondrial superoxide
- mitochondrial superoxide (MitoSOX signal) (H460 cells [6]; [28]): increase in mitochondrial superoxide
- H2O2 (PO-1 probe) (H460 cells [7]; [28]): increase in H2O2
- damage to inner hair cells (IHCs) [20]: sparing of inner hair cells (IHCs)
- damage to outer hair cells (OHCs) [20]: profoundly damages outer hair cells (OHCs)
- total ROS (CellROX signal) (H1299 (wild type) cells [11]; H1299, 1 M cisplatin or cisplatin plus 6 Gy IR): increased total ROS
- total ROS (CellROX signal) (H460 cells [13]; H460, 1 M cisplatin or cisplatin plus 6 Gy IR): increased total ROS
- H2O2 (PO-1 probe) (H1299 (wild type) cells [19]; [27]): increase in H2O2
- mean cHL (patients): 36 dB

Source: patent US20250387406A1, “THERAPY FOR REDUCED OTOTOXICITY FROM CHEMOTHERAPEUTIC AGENT WITH PENTAAZA MACROCYCLIC RING COMPLEX” (GALERA LABS, LLC, priority 2022, published 2025)
